# According to patent US6506758B2, “Indole derivatives useful A.O. for the treatment of osteoporosis” (SmithKline Beecham Laboratoires Pharmceutiques, priority 1997, dated 2003):
# How the values were obtained:
# [1] = biological target: bafilomycin-sensitive ATPase of chicken osteoclast; test: Inhibition of bafilomycin-sensitive ATPase activity in purified chicken osteoclast membrane vesicles (Pi release); type: biochemical; conditions: membrane source not given, chicken osteoclast assumed
# Procedure: Preparation of Crude Bone Microsomes from Calcium-starved Egg-laying Hens
# Vesicles were prepared from medullar bone obtained from tibiae and femurs or egg-laying hens which were calcium-starved for at least 15 days. Briefly, bone fragments were scraped with a 24 scalpel blade, suspended in 40 ml of isolation medium (0.2 M sucrose, 50 mM KCl, 10 mM Hepes, 1 mM EGTA, 2 mM dithiotheitrol, pH 7.4) and filtered through a 100 μm pore size nylon mesh. The whole procedure was performed at 4° C. After homogenisation in a potter (20 strokes) in 40 ml of isolation medium an initial centrifugation (6,500×gmax×20 min) was performed to remove mitochondria and lysosomes. The supernatant was centrifuged at 100,000×gmax for 1 hr and the pellet was collected in 1 ml of isolation medium, divided into 200 μl aliquots, immediately frozen in liquid nitrogen and stored at −80° C. The protein content was determined using a Biorad colourimetric kit according to Bradford [M. Bradford, Anal. Biochem., 72, 248 (1976)]. For the proton transport assay, 5-10 μl of membranes were used.
# Purification of osteoclast membranes. 1 ml of crude microsomal vesicles prepared above were applied (about 0.2 ml per tube ) on the top of a sucrose step-gradient consisting of 3.5 ml of 15%, 30% and 45% (w/w) sucrose in isolation medium and centrifuged at 280,000 gmax for 2 h (SW 41 Ti rotor). After centrifugation the 30-45% sucrose interfaces were collected, diluted approx. 20-fold in isolation medium and pelletted at 100,000 gmax for 1 hour (SW 28 rotor). […]
# Inhibition of bafilomycin-sensitive ATPase activity was assessed in purified membrane vesicles by measuring the release of inorganic phosphate (Pi) during 30 min of incubation at 37° C. in a 96-well plate either in the presence or in the absence of bafilomycin A1. […] Absorbance at 650 nm was measured after 2 min using a microplate reader. Results are expressed as nmol (Pi)×mg protein^−1×min^−1 and, for each experiment, represent the mean±sem of triplicates.
# [2] = biological target: bafilomycin-sensitive ATPase in human kidney membranes; test: Inhibition of bafilomycin-sensitive ATPase in human kidney membranes; type: biochemical; conditions: read-out: IC50 h kidney
# Procedure: Human kidney membranes were obtained from the cortex of a human kidney, frozen immediately after surgery, according to the method reported in the literature for bovine kidney (S. Gluck, J Biol. Chem., 265, 21957 (1990)).
# Inhibition of bafilomycin-sensitive ATPase activity was assessed in purified membrane vesicles by measuring the release of inorganic phosphate (Pi) during 30 min of incubation at 37° C. in a 96-well plate either in the presence or in the absence of bafilomycin A1. The reaction medium contained 1 mM ATP, 10 mM HEPES-Tris pH 8, 50 mM KCl, 5 uM valinomycin, 5 uM nigericin, 1 mM CDTA-Tris,100 uM ammonium molybdate, 0.2 M sucrose and membranes (20 ug protein/ml). The reaction was initiated by MgSO4 (8-arm pipette) and stopped, after 30 min, by addition of 4 volumes of the malachite green reagent (96-arm pipette) prepared according to Chan [Anal. Biochem. 157, 375 (1986)]. Absorbance at 650 nm was measured after 2 min using a microplate reader. Results are expressed as nmol (Pi)×mg protein^−1×min^−1 and, for each experiment, represent the mean±sem of triplicates.
IC50 [1] [µM],IC50 [2] [µM],melting point [°C],Compound
0.35,1.25,–,"CN1C(C)(C)CC(NC(=O)c2ccc(-c3cc4cc(Cl)c(Cl)cc4[nH]3)cc2)CC1(C)C [Example 1, 4-(5,6-Dichloro-1H-indol-2-yl)-N-(1,2,2,6,6-pentamethypiperidin-4-yl)benzamide]"
0.096,0.2,–,"COc1cc(C(=O)NC2CC(C)(C)N(C)C(C)(C)C2)ccc1-c1cc2cc(Cl)c(Cl)cc2[nH]1 [Example 2, 4-(5,6-Dichloro-1H-indol-2-yl)-3-methoxy-N-(1,2,2,6,6-pentamethylpiperidin-4yl)-benzamide]"
1.3,–,–,"COc1cc(-c2cc3cc(Cl)c(Cl)cc3[nH]2)ccc1C(=O)NC1CC(C)(C)N(C)C(C)(C)C1 [Example 3, 4-(5,6-Dichloro-1H-indol-2-yl)-2-methoxy-N-(1,2,2,6,6-pentamethylpiperidin-4-yl)-benzamide]"
–,–,204,"CN(C)CCCNC(=O)c1cccc(-c2cc3cc(Cl)c(Cl)cc3[nH]2)c1 [Example 5, 3-(5,6-Dichloro-1H-indol-2-yl)-N-(3-dimethylaminopropyl)benzamide]"
